Values of other authors in PMC4503980 (Scientific Reports, 2015).

Experiments:
nNOS/PSD-95 interaction [1] = test system: nNOS/PSD-95 interaction; parameters: method as in PMID 19732061; details: cited from earlier work
[2] = test system: animal ischemic stroke models; parameters: method as in PMID 21102461; details: not when the nNOS gene was knocked out; cited from earlier work
PSD-95/SynGAP = test system: PSD-95/SynGAP; parameters: method as in PMID 21102461; details: cited from earlier work
nNOS/PSD-95 interaction [3] = test system: nNOS/PSD-95 interaction; parameters: method as in PMID 21102461; details: extracts from glutamate- or ischemia-induced cultured neurons and cortical brain; cited from earlier work

SMILES: Oc1c(Cl)cc(Cl)cc1CNc1ccc2[nH]nnc2c1 [IC87201, 2-((1H-Benzo[d][1–3]triazol-5-ylamino)methyl)-4-6-dichlorophenol]
- disruption of nNOS/PSD-95 interaction in vitro (nNOS/PSD-95 interaction [1]): disrupt

SMILES: O=C(O)c1ccc(NCc2cc(Cl)cc(Cl)c2O)cc1O [ZL006, 4-((3,5-Dichloro-2-hydroxybenzyl)amino)-2-hydroxybenzoic acid]
- neuroprotective properties in animal ischemic stroke models [2]: robust neuroprotective properties
- inhibition of PSD-95/SynGAP (PSD-95/SynGAP): not inhibited
- inhibition of nNOS/PSD-95 interaction (co-immunoprecipitation) (nNOS/PSD-95 interaction [3]): inhibit
